From ChEMBL document CHEMBL1128435, “Synthesis of carbon-11-, fluorine-18-, and iodine-125-labeled GABAA-gated chloride ion channel blockers: substituted 5-tert-butyl-2-phenyl-1,3-dithianes and -dithiane oxides” (J Med Chem, 1995)
pKi: −log10 of the molar value.

Legend:
[1] = Partition coefficient (logP); type: physicochemical; conditions: octanol/water
[2] = molecular target: GABA-A receptor; anion channel; assay: In vitro displacement of [3H]TBOB from Gamma-aminobutyric acid A (GABA-A) receptor of rat brain

| SMILES | logP [1] | pKi [2] |
| --- | --- | --- |
| CC(C)(C)C1CS(=O)(=O)C(C)(c2ccc(C#N)cc2)S(=O)(=O)C1 (stereo unspecified) | 0.351 | 7.06 |
| CC(C)(C)C1CS(=O)(=O)C(C)(c2ccc(I)cc2)S(=O)(=O)C1 (stereo unspecified) | 1.95 | 6.98 |
| C#Cc1ccc(C2SCC(C(C)(C)C)CS2)cc1 (stereo unspecified) | 4.96 | 7.07 |
| CC(C)(C)[C@H]1CS(=O)(=O)[C@@](C)(c2ccc(C#N)cc2)S(=O)(=O)C1 (stereo in doubt; 9a) |  | 6.70 |
| CC(C)(C)C1CSC(c2ccc(F)cc2)SC1 (stereo unspecified) | 4.97 |  |
| CC(C)(C)C1CS(=O)(=O)C(c2ccc(F)cc2)S(=O)(=O)C1 (stereo unspecified) | 0.43 | 6.74 |

The next lines start with the values.

| logP [1] | pKi [2] | SMILES |
| --- | --- | --- |
| 4.89 |  | CC1(c2ccc(C#N)cc2)SCC(C(C)(C)C)CS1 (stereo unspecified) |
| 4.38 | 6.62 | CC(C)(C)C1CSC(c2ccc(C#N)cc2)SC1 (stereo unspecified) |
| 6.5 | 5.72 | CC1(c2ccc(I)cc2)SCC(C(C)(C)C)CS1 (stereo unspecified) |
|  | 7.39 | CC(C)(C)[C@H]1CS(=O)(=O)[C@@](C)(c2ccc(C#N)cc2)S(=O)(=O)C1 (stereo in doubt; 9b) |
